Experimental data from EP0090368A1, “Anthelmintic preparations” (priority 1982, dated 1983).

How the values were obtained:
[1] = Safety on oral administration to cattle (Example 12); settings: bovine, in vivo, selenium, cobalt and fenbendazole in combination (preparation of Example 3), read-out: oral administration with no adverse effect observed
Protocol: The safety of the composition of Example 3 on oral administration to cattle was investigated: • A total of 16 cattle were treated-orally with the preparation of Example 3. Eight Friesian heifers weighing between 330 and 420 kg were treated with the preparation at the recommended dose of 7.5 ml per 100 kg body weight. Four Friesian cattle weighing between 930 and 990 kg were treated orally with the preparation at five times the recommended dose i.e. 37.5 ml per 100 kg. A further four Friesan cattle weighing between 870 and 1030 kg were treated orally with the preparation at ten times the recommended dose i.e. […].
The cattle were observed daily for a period of 21 days following treatment for any signs at adverse effect.

[2] = Toxicity in lambs, daily clinical examinations after oral treatment (Example 2); settings: sheep, in vivo, per os, given together with fenbendazole as developmental formulation, read-out: oral dose levels tolerated, no signs of drug toxicity
Protocol: Animals: Twenty, six to eight month old lambs were made available for the purpose of this investigation. The lambs were allocated to five groups (n = 4) on the basis of mean faecal egg counts determined on each of three successive days.
Prior to treatment, all lambs were weighed. Lambs were maintained at grass as a single group for the duration of the study.
• Group 1: Untreated controls • Group 2: Treated with 5 mg/kg fenbendazole as Panacur 2.5 % Suspension (Commercial batch, "Panacur", is a Trade Mark) Composition of Panacur 2.5 % : as described in Example 1 with the omission of the selenium and cobalt components. • Group 3: Treated with 5 mg/kg fenbendazole as a developmental formulation (see below) • Group 4: Treated with 25 mg/kg fenbendazole as a developmental formulation (see below) • Group 5: Treated with 50 mg/kg fenbendazole as a developmental formulation (see below)
Groups 4 and 5 thus received five and ten times respectively the recommended dose of fenbendazole and cobalt, and 12.5 and 25 times respectively the recommended dose of selenium.
Clinical examinations were carried out on all lambs daily post treatment for the duration of the study.

[3] = per os, sheep; cited from earlier work

| Structure (SMILES) | NOAEL at 504 h [1] [mg/kg] | NOAEL [2] [mg/kg] | LD50 [3] [mg/kg] |
| --- | --- | --- | --- |
| COC(=O)Nc1nc2ccc(Sc3ccccc3)cc2[nH]1 [Fenbendazole, 5-Phenyl-thio-2-benzimidazolecarbamic acid methylester, reference compound] | ≤ 75 |  |  |
| [Se] [elemental selenium] | ≥ 20 | ≥ 2 | 0.5 |
